In patent US20130252917A1, “COMBINATION THERAPY OF 4-(3-(2H-1,2,3-TRIAZO-2-YL)PHENYLAMINO)-2-((1R,2S)-2-AMINOCYCLOHEXYLAMINO)PYRIMIDINE-5-CARBOXAMIDE AND FLUDARABINE” (priority 2010, published 2013):
Where two headings read alike, the source gives them in different places.

Tested on: primary CLL cells
Experiment: tetrazolium-based cell viability assay (MTS) on primary CLL cells, Compound 1 with or without fludarabine
Set-up: species or system human
Conditions: for IC50: Homo sapiens, CLL cell
Protocol: Fresh primary CLL cells from 42 CLL patients were purified using a Ficoll gradient. Purified cells were then added to wells (5×10^4 per well) containing 10% serum serum containing media and four serial dilutions of Compound 1 (ranging from 10 nM to 10 μM) with or without different concentrations of fludarabine (also ranging from 10 nM to 10 μM). […] The viability data were normalized to untreated controls and were used to calculate IC50 values. […] Comput. Biomed. Res. 199, 32(2): 145-160).

Compound: NC(=O)c1cnc(N[C@@H]2CCCC[C@@H]2N)nc1Nc1cccc(-n2nccn2)c1 [Compound 1, 4-(3-(2H-1,2,3-triazol-2-yl)phenylamino)-2-((1R,2S)-2-aminocyclohexylamino)pyrimidine-5-carboxamide]
- IC50 (read-out: median IC50 (cell viability)): 394 nM
- IC50 (three of seven samples with the 17p deletion that had significant activity, read-out: IC50 (cell viability)): 37.5 nM
- cell viability (samples from relapsed patients and with poor risk features (ZAP70 and/or CD38 expression, 11q deletion, unmutated IgVh)): significant decreases in cell viability
